One data set has as its target T1, Nfo (Pseudomonas putida, UniProt F8G0M2).
T1 sequence (F8G0M2 1-255): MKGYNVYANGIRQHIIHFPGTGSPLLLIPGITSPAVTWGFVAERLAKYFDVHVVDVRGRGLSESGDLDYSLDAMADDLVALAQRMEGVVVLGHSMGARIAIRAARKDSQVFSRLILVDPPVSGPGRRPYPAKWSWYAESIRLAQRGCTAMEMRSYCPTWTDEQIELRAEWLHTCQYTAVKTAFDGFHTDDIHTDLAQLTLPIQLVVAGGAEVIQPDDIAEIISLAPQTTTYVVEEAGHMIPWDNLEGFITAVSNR
The data set is described as follows: coupled formate dehydrogenase assay, NADH at […] nm. Type of data set: biochemical. To be noted: 50 mM Tris-HCl pH 8.0, 20°C, NAD.

The target of a further data set is T2, Ami (Pseudomonas putida, UniProt F8G0M0).
T2 sequence (F8G0M0 1-208): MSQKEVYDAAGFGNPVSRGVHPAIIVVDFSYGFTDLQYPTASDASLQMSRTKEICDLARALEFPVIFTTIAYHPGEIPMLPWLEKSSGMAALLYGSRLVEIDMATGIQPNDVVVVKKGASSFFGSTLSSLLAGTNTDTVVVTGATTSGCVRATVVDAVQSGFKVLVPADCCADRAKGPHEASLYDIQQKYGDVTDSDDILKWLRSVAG
Nature of the data set: coupled glutamate dehydrogenase assay, NADPH at […] nm. The format is biochemical. Particulars: 50 mM Tris-HCl, 1 mM EDTA, 20°C, alpha-ketoglutarate.

Another data set addresses T3, Iso (Pseudomonas putida, UniProt F8G0M3).
T3 sequence (F8G0M3 1-252): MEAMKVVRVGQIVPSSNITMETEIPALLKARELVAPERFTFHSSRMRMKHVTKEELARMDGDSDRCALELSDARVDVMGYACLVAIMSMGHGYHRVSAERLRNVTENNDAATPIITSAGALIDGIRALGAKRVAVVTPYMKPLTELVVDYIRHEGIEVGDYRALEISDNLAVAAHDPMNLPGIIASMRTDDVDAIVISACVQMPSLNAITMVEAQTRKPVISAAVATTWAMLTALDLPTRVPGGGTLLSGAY
Nature of the data set: spectrophotometric, maleate consumption at […] nm. The format is biochemical. To be noted: read-out: apparent Km; 50 mM Tris-HCl pH 8.4, 30°C, 1-thioglycerol.

Substrate in the data set “purified protein”: Oc1ccc(O)nc1
Nature of the data set: purified protein. Type of data set: biochemical, Pseudomonas putida. Particulars: 0.025 mM Fe2+, 18.2 mM Tris-HCl pH 8.0, 20°C.

In the case of `O=CNC(=O)/C=C\C(=O)O` [NFM], the “coupled formate dehydrogenase assay, NADH at 340 nm” value on Nfo is recorded as “Nfo activity was measured through its production of formate by a coupled reaction”.

As for `NC(=O)/C=C\C(=O)O` [maleamic acid], the “coupled glutamate dehydrogenase assay, NADPH at 340 nm” value at Ami was “Purified Ami (Fig. 3A) transformed maleamic acid to maleic acid”.

On to `O=C(O)/C=C\C(=O)O` [maleate], for which, on Iso, the Km – broadly, the concentration of substrate that gives half-maximal velocity – was found to be 689 µM.

B1: Hpo (Pseudomonas putida S16) (protein)
chain: MDHVSFTEICLRQLKMSGVHEGERLIVLTQGHERLAYADAFMAAGQRLGAEMYHMRLPSPLPSNGWAVGVTGLADLPGAVEALKNCDMLIDCVFLLFSAEQFEIQAAGTRILTAVEPPELLARMLPFPELREKVSIAAELVENAKDMRITSPHGTDITYKLNTYPTIAEYACTDTPGRWDHWPSGFVFTGGDDDGVDGTIVVAPGDVLLPQNLMVREPITYTIEKGWIVDIRGGLEAQIVNSYMDSFNDPRGKGMSHVGWGMNPHAKWHNFVPGQFTGGMGMELRSFYGNVMFSTGPNNELGGSNDTACHLDIPMRNCSLFLDDTPVVIDGDIVVKEIQLVQR
For B1, in the data set “purified protein”, the Km was 0.168 µM.
